Measurements reported in PMC7219735, “Crystal structure of Thermus thermophilus methylenetetrahydrofolate dehydrogenase and determinants of thermostability” (PLoS ONE, 2020).

Target: T1, T. thermophilus methylenetetrahydrofolate dehydrogenase (TtMTHFD) (Thermus thermophilus, UniProt Q5SJ94)
T1 construct: gene folD; His-tagged (pQtev, tag removal not mentioned), expressed in E. coli BL21(DE3), 33 kDa, dimer; 277 residues in the model, one chain per asymmetric unit
T1 sequence (Q5SJ94 1-282): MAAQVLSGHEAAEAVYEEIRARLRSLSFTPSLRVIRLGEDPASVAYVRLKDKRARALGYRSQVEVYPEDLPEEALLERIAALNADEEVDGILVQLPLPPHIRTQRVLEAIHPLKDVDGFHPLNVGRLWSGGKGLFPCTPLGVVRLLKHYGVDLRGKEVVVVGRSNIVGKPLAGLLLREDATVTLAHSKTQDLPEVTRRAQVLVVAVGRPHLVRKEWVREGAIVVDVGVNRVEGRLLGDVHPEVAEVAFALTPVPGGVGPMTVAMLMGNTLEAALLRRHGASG
Assay: X-ray crystal structure, […] A
Conditions: crystals from 800 mM potassium sodium tartrate, 100 mM HEPES pH 7.5; nucleotide binding domain; NADP+ addition not described

NC(=O)c1ccc[n+]([C@@H]2O[C@H](COP(=O)(O)OP(=O)(O)OC[C@H]3O[C@@H](n4cnc5c(N)ncnc54)[C@H](OP(=O)(O)O)[C@@H]3O)[C@@H](O)[C@H]2O)c1 [NADP^+]
X-ray crystal structure, 2.15 A: we were able to unambiguously identify and fit a molecule of NADP^+
